# Assay results published in EP0966282B1, “USE OF THE ANGIOTENSIN II ANTAGONISTS LOSARTAN AND EXP-3174 TO TREAT SYMPTOMATIC HEART FAILURE” (priority 1997, dated 1998).
# Marks after values point to notes of the source that are not given here.
# What was measured:
# [1] = system: patients with symptomatic heart failure; test: Exercise study Protocol A: 12-week placebo-controlled study of losartan, clinical events; assay type: in vivo; conditions: for CHF Hospitalization (during DB) / Death: 12 weeks; for CHF Hospitalization (during DB): one patient hospitalized 2 days after discontinuation included; for Death: during double-blind therapy or related to SAE during double-blind
# Text: (§1) Protocols A & B were, multicenter, double-blind, randomized, parallel, placebo-controlled studies to investigate the effects of losartan on the exercise capacity and clinical status of patients over the age of 18 with symptomatic heart failure.
# (§2) Approximately three hundred and fifty (350) patients with symptomatic heart failure (NYHA Functional Class II-IV, at least 50% Class III-IV) and left ventricular ejection fraction ≤40% were randomized to receive either losartan or placebo once daily for 12 weeks in each study. Following a minimum 15-day baseline placebo period, during which a minimum of 5 and maximum of 8 sets of baseline exercise tests (treadmill exercise test and 6-minute walk test) were performed, patients were randomized to treatment with losartan or placebo in a 2:1 ratio, respectively. According to the protocol's, patients must not have received an ACE-inhibitor for at least 6 weeks prior to the third baseline exercise test visit. Treatment with an ACE-inhibitor was not allowed at any time during these studies.
# (§3) This report summarizes the results of the Meta-analysis performed (as proposed in the Data Analysis Plan) on the observed mortality and congestive heart failure (CHF) hospitalization across these two studies. The mortality and CHF hospitalization were not predefined endpoints in the protocols but it was intended that they be analyzed as a part of safety. Thus results from these analyses should not be interpreted as a test of significance as there were no predefined hypotheses corresponding to these safety parameters. […] Odds ratio's with 95% confidence intervals have been provided for these variables.
# (§4) Peto-modified Mantel-Haenszel (Fleiss, J.L., Statistical Methods for Rates and Proportions, Wiley, NY, 1981.) method was used to carry out the Meta-analysis of death and CHF hospitalization rates in the two 12 week exercise studies. This method assumes homogeneity across the studies and provides a test for heterogeneity.
# A total of three hundred and fifty one (351) patients were enrolled in the protocol A study; 237 patients were randomized to receive losartan and 114 patients were randomized to receive placebo. There were 4 (3.5%) deaths in the placebo group as compared to 4 (1.7%) in the losartan group during the double-blind therapy or as related to serious adverse events (AE) during double-blind. Additionally there were 10 (8.8%) CHF hospitalizations in the placebo group as compared to 10 (4.2%) in the losartan group during the double-blind therapy or as related to serious AE during double-blind. One patient included in the losartan group discontinued due to worsening HF and was hospitalized 2 days after discontinuation from double-blind period.
# [2] = system: patients with symptomatic heart failure; test: Exercise study Protocol B: 12-week placebo-controlled study of losartan, clinical events; assay type: in vivo; conditions: for CHF Hospitalization (during DB) / Death: 12 weeks; for Death: during double-blind therapy or related to Serious AE during double-blind
# Text: as §1, §2, §3, §4
# A total of three hundred and eighty five (385) patients were enrolled in the protocol B exercise study; 254 patients were randomized to receive losartan and 131 patients were randomized to receive placebo. There were 9 (6.9%) deaths in the placebo group as compared to 3 (1.2%) in the losartan group during the double-blind therapy or as related to serious AE during double-blind. Additionally there were 7 (5.3%) CHF hospitalizations in the placebo group as compared to 5 (2.0%) in the losartan group during the double-blind therapy or as related to serious AE during double-blind.
# [3] = number of patients of 237 randomized to losartan
# [4] = odds in placebo group relative to losartan group
# [5] = number of patients of 254 randomized to losartan
compound,measurement,setting,value
CCCCc1nc(Cl)c(CO)n1Cc1ccc(-c2ccccc2-c2nn[nH]n2)cc1 [Losartan],CHF Hospitalization (during DB),[1],4.2%^a
same,CHF Hospitalization (during DB),[1]; listed as losartan,4.2%
same,Death,[1],1.7%
same,Death,[1]; listed as losartan,1.7%
same,CHF hospitalizations,[1]; [3],10
same,deaths,[1]; [3],4
same,"CHF Hospitalization, Odds Ratio",[1]; [4],2.2
same,"Death, Odds Ratio",[1]; [4],2.1
same,CHF Hospitalization (during DB),[2],2.0%
same,CHF Hospitalization (during DB),[2]; listed as losartan,2.0%
same,Death,[2],1.2%
same,Death,[2]; listed as losartan,1.2%
same,CHF hospitalizations,[2]; [5],5
same,deaths,[2]; [5],3
same,"CHF Hospitalization, Odds Ratio",[2]; [4],2.7
same,"Death, Odds Ratio",[2]; [4],5.6*
same,"Death, Odds Ratio","[2]; odds in placebo group relative to losartan group, listed as losartan",5.6
